The values below come from US20210070748A1, “INHIBITORS OF BRUTONS TYROSINE KINASE” (Pharmacyclics LLC, priority 2015, published 2021).

Holding throughout (assay type): biochemical
One assay deals with T1, BTK-WT (Homo sapiens, UniProt Q06187).
T1 construct: purified from insect cells as a full-length construct containing an N-terminal 6X-His tag; His6 (N); made in house; host or cells: insect cells (baculovirus Sf21 in Method B)
Nature of the assay: Btk in vitro inhibitory activity (one of Method A TR-FRET, Method B electrophoretic mobility shift, Method C radiometric filter binding). Conditions: read-out: IC50 BTK-WT. Background: A gel shift assay detects complexes by their altered migration in electrophoresis.

The target in another assay is SRC (Homo sapiens, UniProt P12931). The experiment in a line: Inhibition of a panel of kinases, in vitro HotSpot kinase assay: SRC. The method, then:
(§1) The degree of inhibition of a panel of kinases is determined using the in vitro HotSpot kinase assay (purified enzymes, ^33P-ATP, an appropriate substrate and 1 μM ATP).

In a further assay the target is EGFR (Homo sapiens, UniProt P00533). The experiment in a line: Inhibition of a panel of kinases, in vitro HotSpot kinase assay: EGFR. The method, then:
as §1

Another assay has as its target T2, TEC (Homo sapiens, UniProt P42680).
T2 sequence (P42680 1-631): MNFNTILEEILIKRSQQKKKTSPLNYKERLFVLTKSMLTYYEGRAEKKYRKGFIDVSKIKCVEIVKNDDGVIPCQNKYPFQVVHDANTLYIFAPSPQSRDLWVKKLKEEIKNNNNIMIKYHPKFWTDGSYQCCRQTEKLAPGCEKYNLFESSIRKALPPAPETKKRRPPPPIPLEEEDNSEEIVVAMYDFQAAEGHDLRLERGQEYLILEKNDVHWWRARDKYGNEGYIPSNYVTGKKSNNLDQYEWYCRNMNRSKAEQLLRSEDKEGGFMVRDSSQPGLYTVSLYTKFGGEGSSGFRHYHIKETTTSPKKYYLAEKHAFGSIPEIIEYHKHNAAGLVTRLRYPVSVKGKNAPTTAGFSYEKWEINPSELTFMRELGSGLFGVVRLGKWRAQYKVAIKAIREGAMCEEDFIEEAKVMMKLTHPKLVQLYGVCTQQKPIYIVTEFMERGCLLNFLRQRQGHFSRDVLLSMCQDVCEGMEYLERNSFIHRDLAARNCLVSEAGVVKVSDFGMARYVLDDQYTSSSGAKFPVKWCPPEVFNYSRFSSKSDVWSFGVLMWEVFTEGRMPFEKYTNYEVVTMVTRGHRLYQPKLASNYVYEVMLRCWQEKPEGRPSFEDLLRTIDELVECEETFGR
The experiment in a line: Inhibition of a panel of kinases, in vitro HotSpot kinase assay: TEC. The method, then: as §1

[1] abbreviates: Table 13, A compounds, 1 μM ATP.

Like-named read-outs stand apart in the source and are kept apart here.

As a reminder, the IC50 is the point on the concentration scale where inhibition reaches its midpoint.

T1 sequence (Q06187 whole entry): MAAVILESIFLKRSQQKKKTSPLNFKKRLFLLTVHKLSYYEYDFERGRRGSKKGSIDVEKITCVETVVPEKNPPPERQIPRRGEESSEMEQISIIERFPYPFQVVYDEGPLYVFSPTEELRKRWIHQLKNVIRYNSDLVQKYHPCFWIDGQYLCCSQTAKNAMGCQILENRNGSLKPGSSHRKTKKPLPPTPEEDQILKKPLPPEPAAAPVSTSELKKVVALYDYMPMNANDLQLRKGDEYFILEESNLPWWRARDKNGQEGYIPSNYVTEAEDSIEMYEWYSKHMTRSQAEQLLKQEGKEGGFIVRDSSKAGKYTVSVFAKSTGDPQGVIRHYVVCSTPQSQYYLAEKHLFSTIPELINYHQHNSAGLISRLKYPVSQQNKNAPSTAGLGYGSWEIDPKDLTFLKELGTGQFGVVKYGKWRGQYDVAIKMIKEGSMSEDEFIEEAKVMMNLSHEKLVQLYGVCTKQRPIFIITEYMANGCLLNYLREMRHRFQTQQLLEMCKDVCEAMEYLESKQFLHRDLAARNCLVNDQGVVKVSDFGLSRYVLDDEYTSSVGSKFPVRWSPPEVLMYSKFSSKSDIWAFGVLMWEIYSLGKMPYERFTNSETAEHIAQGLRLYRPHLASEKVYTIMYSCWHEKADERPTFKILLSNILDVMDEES
Chain of SRC (P12931 whole entry): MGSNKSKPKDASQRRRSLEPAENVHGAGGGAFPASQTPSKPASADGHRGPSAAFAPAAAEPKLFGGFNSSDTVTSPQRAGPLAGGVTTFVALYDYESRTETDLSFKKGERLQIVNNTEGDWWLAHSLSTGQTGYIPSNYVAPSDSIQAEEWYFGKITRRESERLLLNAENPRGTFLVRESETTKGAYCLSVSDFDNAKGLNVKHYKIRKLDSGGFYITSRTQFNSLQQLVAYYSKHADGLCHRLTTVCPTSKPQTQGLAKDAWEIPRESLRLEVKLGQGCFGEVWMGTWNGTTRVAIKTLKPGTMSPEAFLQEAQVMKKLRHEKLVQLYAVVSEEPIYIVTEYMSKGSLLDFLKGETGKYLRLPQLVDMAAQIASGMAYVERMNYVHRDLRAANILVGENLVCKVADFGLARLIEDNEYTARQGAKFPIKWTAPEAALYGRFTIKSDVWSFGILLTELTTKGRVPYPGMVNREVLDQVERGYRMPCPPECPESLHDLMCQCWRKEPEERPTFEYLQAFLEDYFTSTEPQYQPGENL
Chain of EGFR (P00533 25-1210): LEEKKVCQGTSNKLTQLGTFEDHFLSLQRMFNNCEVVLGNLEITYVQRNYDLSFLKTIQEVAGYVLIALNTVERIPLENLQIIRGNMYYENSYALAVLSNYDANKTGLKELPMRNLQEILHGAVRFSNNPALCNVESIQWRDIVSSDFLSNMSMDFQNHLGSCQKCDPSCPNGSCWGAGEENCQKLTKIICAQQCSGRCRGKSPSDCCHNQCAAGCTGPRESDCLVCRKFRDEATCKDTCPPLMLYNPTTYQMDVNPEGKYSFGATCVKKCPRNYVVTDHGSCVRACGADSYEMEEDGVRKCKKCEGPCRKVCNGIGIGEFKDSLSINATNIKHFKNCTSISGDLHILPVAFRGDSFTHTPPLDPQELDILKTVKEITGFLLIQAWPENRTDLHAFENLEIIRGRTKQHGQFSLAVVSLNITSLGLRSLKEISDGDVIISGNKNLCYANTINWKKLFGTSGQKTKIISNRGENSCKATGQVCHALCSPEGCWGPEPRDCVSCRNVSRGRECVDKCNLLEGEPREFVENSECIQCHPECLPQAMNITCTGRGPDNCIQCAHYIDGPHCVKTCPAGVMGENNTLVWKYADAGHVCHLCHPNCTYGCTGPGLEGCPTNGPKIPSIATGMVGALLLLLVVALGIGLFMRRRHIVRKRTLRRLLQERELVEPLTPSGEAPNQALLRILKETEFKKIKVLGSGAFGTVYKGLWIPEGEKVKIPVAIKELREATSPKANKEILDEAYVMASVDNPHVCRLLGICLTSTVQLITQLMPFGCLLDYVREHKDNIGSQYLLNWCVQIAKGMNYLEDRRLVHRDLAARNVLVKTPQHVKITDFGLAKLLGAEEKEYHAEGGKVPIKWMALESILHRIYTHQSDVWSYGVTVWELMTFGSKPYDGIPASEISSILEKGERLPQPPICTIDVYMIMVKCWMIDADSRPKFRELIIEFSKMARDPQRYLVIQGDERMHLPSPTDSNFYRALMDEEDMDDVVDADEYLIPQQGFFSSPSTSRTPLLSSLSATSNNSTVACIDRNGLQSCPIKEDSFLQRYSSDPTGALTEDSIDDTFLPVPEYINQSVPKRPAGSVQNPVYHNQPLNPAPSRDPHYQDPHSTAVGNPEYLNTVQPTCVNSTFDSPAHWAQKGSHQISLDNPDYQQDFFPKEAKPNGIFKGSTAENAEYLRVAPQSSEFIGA

On to `C[C@@H]1[C@H](NC(=O)c2ccc(-c3ncco3)cc2)CCCN1c1cnc(C(N)=O)c(Nc2cnn(C)c2)n1` [Example E-154, 3-((1-methyl-1H-pyrazol-4-yl)amino)-5-((2R,3R)-2-methyl-3-(4-(oxazol-2-yl)benzamido)piperidin-1-yl)pyrazine-2-carboxamide], for which the half-maximal inhibitory concentration (IC50) on BTK-WT (E compounds, Table 17) is no more than 0.01 µM; on SRC (E compounds, Table 17), 0.01 to 0.1 µM; at EGFR (E compounds, Table 17) it was 1 to 10 µM; on TEC (E compounds, Table 17), no more than 0.01 µM.
Take `CN(C)C(=O)N[C@@H]1CCCN(c2cnc(C(N)=O)c(Nc3ccc(C4(C)CCN(C5CCCC5)CC4)cc3)n2)[C@@H]1CO` [Example A-101, 3-{[4-(1-cyclopentyl-4-methylpiperidin-4-yl)phenyl]amino}-5-[(2S,3R)-3-[(dimethylcarbamoyl)amino]-2-(hydroxymethyl)piperidin-1-yl]pyrazine-2-carboxamide]: the IC50 at BTK-WT (Table 13, A compounds) is no more than 0.01 µM; on SRC (setting [1]), 0.1 to 1 µM; against EGFR (setting [1]) it was 0.1 to 1 µM; on TEC (setting [1]), 0.1 to 1 µM.
As to `C[C@@H]1[C@H](NC(=O)c2ccc(C3CC3)cc2)CCCN1c1cnc(C(N)=O)c(Nc2ccc(N3CCN(C4CCCC4)C[C@@H]3C)cc2)n1` [Example E-137, 3-((4-((S)-4-cyclopentyl-2-methylpiperazin-1-yl)phenyl)amino)-5-((2R,3R)-3-(4-cyclopropylbenzamido)-2-methyipiperidin-1-yl)pyrazine-2-carboxamide], the IC50 at BTK-WT (E compounds, Table 17) was no more than 0.01 µM; on SRC (E compounds, Table 17), 0.01 to 0.1 µM; on EGFR (E compounds, Table 17), 1 to 10 µM; at TEC (E compounds, Table 17), 0.01 to 0.1 µM.
Consider `C[C@@H]1CCN(c2cnc(C(N)=O)c(Nc3cnn(C)c3)n2)C[C@@H]1NC(=O)c1ccc(C2CC2)cc1` [Example E-140, 5-((3R,4R)-3-(4-cyclopropylbenzamido)-4-methylpiperidin-1-yl)-3-((1-methyl-1H-pyrazol-4-yl)amino)pyrazine-2-carboxamide], for which the IC50 at BTK-WT (E compounds, Table 17) was 0.1 to 1 µM; against SRC (E compounds, Table 17) it was greater than 10 µM; against EGFR (E compounds, Table 17), greater than 10 µM; against TEC (E compounds, Table 17), 1 to 10 µM.
Regarding `CN1CCC(n2cc(Nc3nc(N4CCC[C@@H](n5ccc6cc(C7CC7)ccc6c5=O)C4)cnc3C(N)=O)cn2)CC1` [Example A-178, 5-[(3R)-3-(6-cyclopropyl-1-oxo-1,2-dihydroisoquinolin-2-yl)piperidin-1-yl]-3-{[1-(1-methylpiperidin-4-yl)-1H-pyrazol-4-yl]amino}pyrazine-2-carboxamide], the IC50 was no more than 0.01 µM at BTK-WT (Table 13, A compounds); 0.1 to 1 µM against SRC (setting [1]); 1 to 10 µM against EGFR (setting [1]); 0.01 to 0.1 µM on TEC (setting [1]).
